For one compound, kon results are on record in BindingDB's records for doi:10.1021/ml400408c (Wesleyan University, 2014).

The target of this assay is T1, Penicillin-binding protein 4 (Bacillus subtilis (strain 168), UniProt P40750).
T1 sequence (P40750 whole entry): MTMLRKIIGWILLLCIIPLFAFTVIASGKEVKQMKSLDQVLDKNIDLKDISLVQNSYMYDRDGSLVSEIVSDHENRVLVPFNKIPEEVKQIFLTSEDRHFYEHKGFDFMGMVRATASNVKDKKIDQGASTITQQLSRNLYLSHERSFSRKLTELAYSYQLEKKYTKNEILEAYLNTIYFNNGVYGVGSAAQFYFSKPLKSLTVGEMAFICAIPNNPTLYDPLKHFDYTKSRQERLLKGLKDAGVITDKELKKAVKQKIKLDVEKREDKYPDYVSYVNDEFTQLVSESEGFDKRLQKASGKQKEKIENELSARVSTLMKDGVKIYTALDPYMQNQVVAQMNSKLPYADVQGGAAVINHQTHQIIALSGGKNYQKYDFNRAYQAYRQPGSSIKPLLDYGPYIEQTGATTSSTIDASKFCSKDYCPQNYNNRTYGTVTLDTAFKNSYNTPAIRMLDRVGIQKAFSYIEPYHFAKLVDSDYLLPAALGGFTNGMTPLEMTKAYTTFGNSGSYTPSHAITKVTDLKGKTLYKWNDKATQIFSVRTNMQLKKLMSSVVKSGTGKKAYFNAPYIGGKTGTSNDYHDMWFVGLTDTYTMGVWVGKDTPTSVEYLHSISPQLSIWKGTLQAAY
Description: Inhibition of Bacillus subtilis 168 PBP4 after 30 mins by SDS-PAGE. The settings on record: read-out: kon (M-1-s-1).

A word on the kon: it is the rate constant with which the complex forms. Consider `CC1(C)S[C@@H]2[C@H](NC(=O)COc3ccccc3)C(=O)N2[C@H]1C(=O)O` [Beepen-VK], for which the kon amounted to 19000 M⁻¹ s⁻¹.
